Data: ChEMBL document CHEMBL1139722, “N',2-diphenylquinoline-4-carbohydrazide based NK3 receptor antagonists” (Bioorg Med Chem Lett, 2006)
Each block holds one compound with its values, some of them ahead of it. The source made the active and inactive calls.

Legend:
PXR (NR1I2) = target: T1, PXR (NR1I2) (Homo sapiens, UniProt O75469); assay: Increase in human PXR activation expressed in CHO cells relative to rifampicin; type: cell-based; details: CHO cells expressing human PXR, read-out: Activity
T1 sequence (O75469 whole entry): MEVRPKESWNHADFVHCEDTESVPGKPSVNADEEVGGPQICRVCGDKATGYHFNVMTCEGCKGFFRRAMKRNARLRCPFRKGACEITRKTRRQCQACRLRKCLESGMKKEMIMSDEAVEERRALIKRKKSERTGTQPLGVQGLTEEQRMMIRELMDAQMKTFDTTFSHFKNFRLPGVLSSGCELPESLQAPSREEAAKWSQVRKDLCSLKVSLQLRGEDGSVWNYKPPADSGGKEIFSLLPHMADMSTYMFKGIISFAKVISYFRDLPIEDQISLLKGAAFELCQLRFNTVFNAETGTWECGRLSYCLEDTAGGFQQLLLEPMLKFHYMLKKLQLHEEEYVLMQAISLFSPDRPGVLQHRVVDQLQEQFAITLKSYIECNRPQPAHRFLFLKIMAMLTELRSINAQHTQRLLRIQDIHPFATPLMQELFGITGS

Neuromedin-K receptor [1] = target: T2, Neuromedin-K receptor (Homo sapiens, UniProt P29371); assay: Displacement of [125I]neurokinin B from cloned human NK3 receptor expressed in CHO cells; type: cell-based
T2 sequence (P29371 whole entry): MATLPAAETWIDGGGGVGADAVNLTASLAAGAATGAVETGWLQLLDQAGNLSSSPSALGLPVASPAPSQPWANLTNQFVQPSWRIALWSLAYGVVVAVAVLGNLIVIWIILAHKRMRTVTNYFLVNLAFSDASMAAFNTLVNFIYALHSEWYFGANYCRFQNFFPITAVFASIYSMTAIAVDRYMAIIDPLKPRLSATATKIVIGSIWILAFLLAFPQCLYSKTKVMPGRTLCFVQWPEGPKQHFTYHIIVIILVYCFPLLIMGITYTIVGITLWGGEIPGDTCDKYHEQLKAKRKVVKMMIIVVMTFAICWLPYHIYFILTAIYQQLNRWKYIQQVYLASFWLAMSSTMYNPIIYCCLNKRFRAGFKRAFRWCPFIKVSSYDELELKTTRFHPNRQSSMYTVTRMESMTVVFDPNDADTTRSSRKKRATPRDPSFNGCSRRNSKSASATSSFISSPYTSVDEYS

[2] = target: T3, Neuromedin-K receptor (Homo sapiens) (UniProt P29371); assay: Displacement of [125I]neurokinin B from cloned human NK3 receptor expressed in CHO cells at 1 uM; type: cell-based; details: filed as antagonist
T3 sequence (whole entry): T2 sequence (P29371 whole entry)

Neuromedin-K receptor [3] = target: T4, Neuromedin-K receptor (Rattus norvegicus, UniProt P16177); assay: Binding affinity to rat NK3 receptor
T4 sequence (P16177 whole entry): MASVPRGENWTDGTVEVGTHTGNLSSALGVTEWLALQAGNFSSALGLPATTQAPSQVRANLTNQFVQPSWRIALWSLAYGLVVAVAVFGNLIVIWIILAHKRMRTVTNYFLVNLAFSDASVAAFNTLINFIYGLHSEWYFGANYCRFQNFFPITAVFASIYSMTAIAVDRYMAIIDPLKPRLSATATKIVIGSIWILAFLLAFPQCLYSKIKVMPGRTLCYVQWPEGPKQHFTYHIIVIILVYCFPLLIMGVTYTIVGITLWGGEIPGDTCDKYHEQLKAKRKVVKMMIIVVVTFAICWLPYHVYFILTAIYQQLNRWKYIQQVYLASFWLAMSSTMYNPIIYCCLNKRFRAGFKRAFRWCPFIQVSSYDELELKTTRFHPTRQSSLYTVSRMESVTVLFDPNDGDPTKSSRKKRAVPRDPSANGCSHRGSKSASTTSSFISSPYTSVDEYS

Escherichia coli [4] = assay: Effect on Escherichia coli mutation in absence of liver microsomal enzymes by Ames assay; type: functional, organism-based
[5] = target: T3, Neuromedin-K receptor (Homo sapiens); assay: Activity at human NK3 receptor assessed as stimulation of inositol phosphate generation in CHO cells up to 10 uM; type: functional, cell-based
Escherichia coli [6] = assay: Effect on Escherichia coli mutation in presence of liver microsomal enzymes by Ames assay; type: functional, organism-based
Cytochrome P450 3A4 = Cytochrome P450 3A4 (Homo sapiens, UniProt P08684); assay: Inhibition of CYP3A4 in human liver microsomes; type: ADME, Microsome
Sequence of Cytochrome P450 3A4 (P08684 whole entry): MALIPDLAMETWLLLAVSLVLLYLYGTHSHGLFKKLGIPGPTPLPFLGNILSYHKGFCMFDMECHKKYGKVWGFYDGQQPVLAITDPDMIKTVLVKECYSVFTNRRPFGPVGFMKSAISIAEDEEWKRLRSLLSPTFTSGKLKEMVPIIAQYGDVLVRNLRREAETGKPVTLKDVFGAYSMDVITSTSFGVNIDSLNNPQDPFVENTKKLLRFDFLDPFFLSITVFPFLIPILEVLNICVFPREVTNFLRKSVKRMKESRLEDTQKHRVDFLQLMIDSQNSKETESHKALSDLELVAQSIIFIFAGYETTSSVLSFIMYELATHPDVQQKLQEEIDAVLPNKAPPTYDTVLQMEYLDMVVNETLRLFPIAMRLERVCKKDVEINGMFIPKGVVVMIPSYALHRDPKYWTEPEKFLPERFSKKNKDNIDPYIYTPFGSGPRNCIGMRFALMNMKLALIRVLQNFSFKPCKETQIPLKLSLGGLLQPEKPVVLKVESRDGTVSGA

Gerbil, jird [7] = assay: Plasma concentration in gerbil at 30 mg/kg, po; type: ADME, organism-based; design: dose 30 mg/kg, route oral; details: meriones, in vivo
Substance-K receptor = target: T5, Substance-K receptor (Homo sapiens, UniProt P21452); assay: Inhibition of human NK2 receptor
T5 sequence (P21452 whole entry): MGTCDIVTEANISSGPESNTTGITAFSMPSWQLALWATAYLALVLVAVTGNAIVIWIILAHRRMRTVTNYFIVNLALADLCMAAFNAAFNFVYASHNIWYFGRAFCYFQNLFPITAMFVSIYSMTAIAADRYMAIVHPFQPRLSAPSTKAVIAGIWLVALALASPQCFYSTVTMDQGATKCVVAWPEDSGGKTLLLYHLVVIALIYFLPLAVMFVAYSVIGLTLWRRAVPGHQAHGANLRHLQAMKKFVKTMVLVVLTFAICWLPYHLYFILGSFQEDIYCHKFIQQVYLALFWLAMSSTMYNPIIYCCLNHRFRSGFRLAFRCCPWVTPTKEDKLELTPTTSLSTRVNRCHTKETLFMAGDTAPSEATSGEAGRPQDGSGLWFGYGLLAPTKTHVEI

Cytochrome P450 2C9 = Cytochrome P450 2C9 (Homo sapiens, UniProt P11712); assay: Inhibition of CYP2C9 in human liver microsomes; type: ADME, Microsome
Sequence of Cytochrome P450 2C9 (P11712 whole entry): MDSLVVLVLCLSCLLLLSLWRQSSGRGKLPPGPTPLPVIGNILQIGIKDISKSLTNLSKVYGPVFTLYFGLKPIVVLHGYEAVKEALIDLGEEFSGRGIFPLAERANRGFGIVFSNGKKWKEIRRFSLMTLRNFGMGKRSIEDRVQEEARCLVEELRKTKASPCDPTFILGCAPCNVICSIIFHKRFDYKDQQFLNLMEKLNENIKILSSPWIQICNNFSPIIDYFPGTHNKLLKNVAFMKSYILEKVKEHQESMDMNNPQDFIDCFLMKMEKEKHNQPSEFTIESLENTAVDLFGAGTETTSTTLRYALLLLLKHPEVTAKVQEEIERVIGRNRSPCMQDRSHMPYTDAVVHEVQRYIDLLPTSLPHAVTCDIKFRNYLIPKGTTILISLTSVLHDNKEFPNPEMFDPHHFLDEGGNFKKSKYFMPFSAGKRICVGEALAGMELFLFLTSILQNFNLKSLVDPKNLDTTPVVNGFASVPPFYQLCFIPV

[8] = target: T3, Neuromedin-K receptor (Homo sapiens); assay: Activity at human NK3 receptor assessed as stimulation of calcium mobilization in CHO cells up to 10 uM; type: functional, cell-based
Salmonella typhimurium [9] = assay: Effect on Salmonella Typhimurium mutation in absence of liver microsomal enzymes by Ames assay; type: functional, organism-based; details: Salmonella enterica subsp. enterica serovar Typhimurium
[10] = target: Voltage-gated inwardly rectifying potassium channel KCNH2 (Homo sapiens, UniProt Q12809); assay: Inhibition of hERG; type: toxicity
Sequence of Voltage-gated inwardly rectifying potassium channel KCNH2 (Q12809 whole entry): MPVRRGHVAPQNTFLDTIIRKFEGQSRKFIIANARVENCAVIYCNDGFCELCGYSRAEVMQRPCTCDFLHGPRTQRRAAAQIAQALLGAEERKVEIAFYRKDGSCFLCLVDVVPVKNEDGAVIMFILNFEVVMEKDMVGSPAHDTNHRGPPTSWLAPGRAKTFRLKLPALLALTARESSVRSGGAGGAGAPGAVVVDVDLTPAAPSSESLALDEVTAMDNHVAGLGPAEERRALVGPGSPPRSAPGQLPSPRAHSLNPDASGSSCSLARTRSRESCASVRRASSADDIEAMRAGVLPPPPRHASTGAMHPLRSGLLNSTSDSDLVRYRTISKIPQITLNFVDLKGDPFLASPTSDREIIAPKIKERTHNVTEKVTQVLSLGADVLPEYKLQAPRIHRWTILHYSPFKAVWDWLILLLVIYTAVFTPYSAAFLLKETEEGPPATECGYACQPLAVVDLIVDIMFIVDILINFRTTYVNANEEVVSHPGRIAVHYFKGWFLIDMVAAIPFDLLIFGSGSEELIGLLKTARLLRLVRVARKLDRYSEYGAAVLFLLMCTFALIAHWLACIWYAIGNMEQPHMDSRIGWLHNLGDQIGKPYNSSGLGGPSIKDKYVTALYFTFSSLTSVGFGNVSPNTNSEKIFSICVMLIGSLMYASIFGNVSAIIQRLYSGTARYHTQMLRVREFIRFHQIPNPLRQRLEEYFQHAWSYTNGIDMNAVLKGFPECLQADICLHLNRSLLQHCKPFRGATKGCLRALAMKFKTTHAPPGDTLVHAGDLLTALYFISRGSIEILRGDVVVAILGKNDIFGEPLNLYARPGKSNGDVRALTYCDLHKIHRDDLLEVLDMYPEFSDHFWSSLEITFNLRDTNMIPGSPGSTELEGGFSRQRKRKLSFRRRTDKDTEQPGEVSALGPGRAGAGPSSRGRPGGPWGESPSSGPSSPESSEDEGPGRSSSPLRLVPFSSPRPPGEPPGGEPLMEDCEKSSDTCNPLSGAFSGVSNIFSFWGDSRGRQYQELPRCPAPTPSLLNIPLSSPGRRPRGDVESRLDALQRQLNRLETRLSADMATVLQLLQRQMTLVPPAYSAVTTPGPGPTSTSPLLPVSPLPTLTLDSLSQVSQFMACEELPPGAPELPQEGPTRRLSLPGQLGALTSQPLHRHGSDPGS

[11] = Oral bioavailability in rat; type: ADME, organism-based; details: in vivo
[12] = Half life in rat; type: ADME, organism-based; details: in vivo
[13] = Half life in dog; type: ADME, organism-based, Canis lupus familiaris; details: in vivo
Hepatocyte = assay: Induction of CYP3A4 in human hepatocytes at 20 uM relative to rifampicin; type: functional, cell-based
Salmonella typhimurium [14] = assay: Effect on Salmonella Typhimurium mutation in presence of liver microsomal enzymes by Ames assay; type: functional, organism-based; details: Salmonella enterica subsp. enterica serovar Typhimurium
[15] = target: T3, Neuromedin-K receptor (Homo sapiens); assay: Activity at human NK3 receptor assessed as inhibition of eledoisin-induced inositol phosphate generation in CHO cells; type: functional, cell-based
Cytochrome P450 2D6 = Cytochrome P450 2D6 (Homo sapiens, UniProt P10635); assay: Inhibition of CYP2D6 in human liver microsomes; type: ADME, Microsome
Sequence of Cytochrome P450 2D6 (P10635 whole entry): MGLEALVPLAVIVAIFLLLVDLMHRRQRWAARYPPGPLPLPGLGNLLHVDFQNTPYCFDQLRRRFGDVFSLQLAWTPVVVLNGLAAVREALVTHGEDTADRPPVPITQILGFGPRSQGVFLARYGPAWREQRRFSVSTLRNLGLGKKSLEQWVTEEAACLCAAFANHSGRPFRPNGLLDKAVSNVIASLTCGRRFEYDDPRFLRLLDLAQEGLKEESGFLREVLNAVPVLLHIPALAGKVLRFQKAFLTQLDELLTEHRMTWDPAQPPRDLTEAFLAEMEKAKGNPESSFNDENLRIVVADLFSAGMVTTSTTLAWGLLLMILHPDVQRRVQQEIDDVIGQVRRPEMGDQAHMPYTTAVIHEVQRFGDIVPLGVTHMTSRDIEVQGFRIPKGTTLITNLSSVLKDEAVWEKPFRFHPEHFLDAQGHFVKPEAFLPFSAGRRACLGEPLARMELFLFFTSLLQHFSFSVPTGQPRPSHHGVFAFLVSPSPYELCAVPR

Substance-P receptor = Substance-P receptor (Homo sapiens, UniProt P25103); assay: Inhibition of human NK1 receptor
Sequence of Substance-P receptor (P25103 whole entry): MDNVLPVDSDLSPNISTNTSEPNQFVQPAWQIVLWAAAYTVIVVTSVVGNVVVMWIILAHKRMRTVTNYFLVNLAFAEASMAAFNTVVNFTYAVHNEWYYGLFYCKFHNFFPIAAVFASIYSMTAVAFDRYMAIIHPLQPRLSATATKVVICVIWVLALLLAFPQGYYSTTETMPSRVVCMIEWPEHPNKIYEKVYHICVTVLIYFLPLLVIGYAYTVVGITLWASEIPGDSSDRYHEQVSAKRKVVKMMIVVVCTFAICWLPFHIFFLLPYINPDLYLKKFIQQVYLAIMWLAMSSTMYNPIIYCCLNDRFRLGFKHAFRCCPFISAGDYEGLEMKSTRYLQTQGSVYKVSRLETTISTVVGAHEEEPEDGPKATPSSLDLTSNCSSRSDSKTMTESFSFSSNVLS

[16] = Oral bioavailability in dog; type: ADME, organism-based, Canis lupus familiaris; details: in vivo
[17] = Metabolic stability in rat liver microsomes after 15 mins; type: ADME, Microsome; details: read-out: Stability
Gerbil, jird [18] = assay: Plasma concentration in gerbil at 75 mg/kg, po; type: ADME, organism-based; design: dose 75 mg/kg, route oral; details: meriones, in vivo
Gerbil, jird [19] = assay: Plasma concentration in gerbil at 10 mg/kg, po; type: ADME, organism-based; design: dose 10 mg/kg, route oral; details: meriones, in vivo

- Emax (PXR (NR1I2)): 44%
- IC50 (Neuromedin-K receptor [1]): 91 nM (antagonist)
SMILES: COC(=O)N(NC(=O)c1cc(-c2ccccc2)nc2ccccc12)c1ccccc1

- IC50 (Neuromedin-K receptor [1]): 210 nM (antagonist)
SMILES: COc1c(-c2ccccc2)nc2ccccc2c1C(=O)NN(C(C)=O)c1ccccc1

- IC50 (Neuromedin-K receptor [1]): 16 nM (antagonist)
SMILES: CCN(NC(=O)c1c(OC)c(-c2ccccc2)nc2ccccc12)c1ccccc1

- inhibition [2]: 27%
- Emax (PXR (NR1I2)): 87%
SMILES: COC(=O)N(NC(=O)c1c(OC)c(-c2ccccc2)nc2c(C(F)(F)F)cccc12)c1ccccc1

- Emax (PXR (NR1I2)): 88%
- IC50 (Neuromedin-K receptor [1]): 430 nM (antagonist)
SMILES: COC(=O)N(NC(=O)c1c(OC)c(-c2ccccc2)nc2c(Br)cccc12)c1ccccc1

- inhibition [2]: 35%
- Emax (PXR (NR1I2)): 87%
SMILES: COC(=O)N(NC(=O)c1c(OC)c(-c2ccccc2)nc2c(C#N)cccc12)c1ccccc1

- Emax (PXR (NR1I2)): 62%
- IC50 (Neuromedin-K receptor [1]): 28 nM (antagonist)
SMILES: COC(=O)N(NC(=O)c1c(OC)c(-c2ccccc2)nc2cc(F)ccc12)c1ccccc1

- IC50 (Neuromedin-K receptor [1]): 32 nM (antagonist)
SMILES: COc1c(-c2ccccc2)nc2ccccc2c1C(=O)NNc1ccccc1

- Emax (PXR (NR1I2)): 62%
- IC50 (Neuromedin-K receptor [1]): 38 nM (antagonist)
SMILES: COC(=O)N(NC(=O)c1c(OC)c(-c2ccccc2)nc2ccc(F)cc12)c1ccccc1

- IC50 (Neuromedin-K receptor [1]): 190 nM (antagonist)
SMILES: COc1c(-c2ccccc2)nc2ccccc2c1C(=O)NN(C(=O)OCC(C)C)c1ccccc1

- IC50 (Neuromedin-K receptor [1]): 57 nM (antagonist)
SMILES: COc1c(-c2ccccc2)nc2ccccc2c1C(=O)NN(C)c1ccccc1

- Emax (PXR (NR1I2)): 69%
- IC50 (Neuromedin-K receptor [1]): 22 nM (antagonist)
SMILES: COC(=O)N(NC(=O)c1c(OC)c(-c2cccc(F)c2)nc2ccccc12)c1ccccc1

SMILES: COC(=O)N(NC(=O)c1c(OC)c(-c2ccccc2)nc2ccccc12)c1ccccc1
- IC50 (Neuromedin-K receptor [3]): 66 nM (antagonist)
- Activity (Escherichia coli [4]): inactive
- Activity [5]: inactive
- Activity (Escherichia coli [6]): inactive
- IC50 (Cytochrome P450 3A4): 12000 nM
- concentration (Gerbil, jird [7]): 950 nM
- IC50 (Substance-K receptor): > 1000 nM
- Emax (PXR (NR1I2)): 49%
- IC50 (Cytochrome P450 2C9): > 30000 nM
- Activity [8]: inactive
- Activity (Salmonella typhimurium [9]): inactive
- Ki [10]: > 8000 nM
- bioavailability [11]: 43%
- half-life [12]: 4.6 h
- half-life [13]: 3 h
- Activity (Hepatocyte): Active
- Activity (Salmonella typhimurium [14]): inactive
- Activity [15]: Dose-dependent effect
- IC50 (Cytochrome P450 2D6): > 30000 nM
- IC50 (Substance-P receptor): > 1000 nM
- bioavailability [16]: 36%
- remaining at 0.25 h [17]: 21%

- IC50 (Neuromedin-K receptor [1]): 60 nM (antagonist)
SMILES: CCOC(=O)N(NC(=O)c1c(OC)c(-c2ccccc2)nc2ccccc12)c1ccccc1

- Emax (PXR (NR1I2)): 75%
- IC50 (Neuromedin-K receptor [1]): 4.1 nM (antagonist)
SMILES: COC(=O)N(NC(=O)c1c(OC)c(-c2ccccc2)nc2c(F)cccc12)c1ccccc1

- Emax (PXR (NR1I2)): 62%
- concentration (Gerbil, jird [18]): 3800 nM
SMILES: CC[C@H](NC(=O)c1c(O)c(-c2ccccc2)nc2ccccc12)c1ccccc1 [TALNETANT]

- IC50 (Neuromedin-K receptor [1]): 110 nM (antagonist)
SMILES: COC(=O)N(NC(=O)c1c(OC)c(-c2ccccc2F)nc2ccccc12)c1ccccc1

- IC50 (Neuromedin-K receptor [1]): 53 nM (antagonist)
SMILES: COC(=O)N(NC(=O)c1c(OC)c(-c2ccccc2)nc2ccccc12)c1ccccc1F

- IC50 (Neuromedin-K receptor [1]): 39 nM (antagonist)
SMILES: COC(=O)N(NC(=O)c1c(O)c(-c2ccccc2)nc2ccccc12)c1ccccc1

- Emax (PXR (NR1I2)): 56%
- IC50 (Neuromedin-K receptor [1]): 8.4 nM (antagonist)
SMILES: COC(=O)N(NC(=O)c1c(C)c(-c2ccccc2)nc2ccccc12)c1ccccc1

- Emax (PXR (NR1I2)): 54%
- IC50 (Neuromedin-K receptor [1]): 7.4 nM (antagonist)
SMILES: COC(=O)N(NC(=O)c1c(OC)c(-c2ccccc2)nc2ccccc12)c1cccc(F)c1

- Emax (PXR (NR1I2)): 64%
- IC50 (Neuromedin-K receptor [1]): 10 nM (antagonist)
SMILES: COC(=O)N(NC(=O)c1c(N)c(-c2ccccc2)nc2ccccc12)c1ccccc1

- IC50 (Neuromedin-K receptor [1]): 22 nM (antagonist)
SMILES: CCC(=O)N(NC(=O)c1c(OC)c(-c2ccccc2)nc2ccccc12)c1ccccc1

- Emax (PXR (NR1I2)): 55%
- IC50 (Neuromedin-K receptor [1]): 11 nM (antagonist)
SMILES: COC(=O)N(NC(=O)c1c(OC)c(-c2ccccc2)nc2cccc(F)c12)c1ccccc1

- Emax (PXR (NR1I2)): 54%
- IC50 (Neuromedin-K receptor [1]): 24 nM (antagonist)
SMILES: COC(=O)N(NC(=O)c1c(OC)c(-c2ccc(F)cc2)nc2ccccc12)c1ccccc1

- IC50 (Neuromedin-K receptor [1]): 33 nM (antagonist)
SMILES: COC(=O)N(NC(=O)c1c(OC)c(-c2ccccc2)nc2ccccc12)c1ccc(F)cc1

- Emax (PXR (NR1I2)): 68%
- IC50 (Neuromedin-K receptor [1]): 0.85 nM (antagonist)
- concentration (Gerbil, jird [19]): 40 nM
- remaining at 0.25 h [17]: 65%
SMILES: COc1c(-c2ccccc2)nc2ccccc2c1C(=O)NN(c1ccccc1)c1ccccc1
